The results in this text go back to patent publication US6582968B2, “Paramagnetic and active analogue (EMP-2) of melanocyte stimulating hormone containing amino acid-type stable free radical” (Conselho Nacional de Desenvolvimento Cientifico e …, priority 1999, dated 2003).

The subject of the experiment is frog (Rana catesbeiana) skin. Kind of experiment: frog skin bioassay (skin darkening measured by reflectance). Conditions: for time to reversal of the maximum response after removal of the agonist: 10^−8 M peptide, removal followed by several Ringer's solution washings, FIG. 5; for agonist character and potency compared to native α-MSH (dose-response curves): frog skin pigmentation, decrease in skin reflectance, FIG. 4. The format is cell-based. Here is the method: The biological activity assay of the EPM-2 was carried out comparatively to the native α-MSH. The classical method of measuring by reflectance the alteration in the frog skin pigmentation was assayed, see, Gen. Comp. Endocrinol. 55, 104 (1984). The potency of the synthesized hormone was determined through a dose-effect curve and long lasting activities were measured until a maximum of 3 h after the peptide removal from the incubation system carried out with successive washes. Briefly, the skin of the thigh and the dorsal portion of a frog were removed and cut in pieces of 2×2 cm which were placed among two rings of PVC and maintained for 1 h in Ringer's solution. After this period, the melanin granules aggregate in the melanocytes, and the skin becomes clearer. When α-MSH or its spin labeled analogue is added to the medium, there is a dispersion of the pigments in the cell, resulting in skin darkening. The change in the coloration is therefore monitored (decrease in the skin reflectance) in a photovolt reflectometer. The result is expressed as percentage in relation to the initial value.

For “Acetyl-Ser-Tyr-Ser-Met-Glu-His-Phe-Arg-Trp-Gly-Lys-Pro-Val-CONH2 (Ac-SYSMEHFRWGKPV-NH2) [α-MSH, native melanocyte stimulating hormone, comparator, reference compound]”, the “time to reversal of the maximum response after removal of the agonist” value is recorded as 90 min.
As to “Acetyl-Toac-Ser-Tyr-Ser-Met-Glu-His-Phe-Arg-Trp-Gly-Lys-Pro-Val-CONH2 [EPM-2]”, the “time to reversal of the maximum response after removal of the agonist” value is given as 90 min; the “agonist character and potency compared to native α-MSH (dose-response curves)” value is recorded as “fully maintaining the biological potency of the native α-MSH”. Further, the “agonist character and potency compared to native α-MSH (dose-response curves)” value (listed as labeled analogue) is listed as “full α-MSH agonist with equivalent potency”. Also, the “natural biological activity maintained” value (relative to native α-MSH) turned out to be 100%.
